Measured values reported in article PMC5344956 (Cancer Chemotherapy and Pharmacology, 2017).

Key:
[1] = Metabolite profiling of plasma (HPLC-radiochromatography); format: in vivo, human; details: % of TRA
Description: For each subject, a 0–24 h pooled plasma sample was prepared according to the scheme outlined in the literature. In addition, several pooled plasma samples across all subjects were prepared at these time points: 5, 10, 12, […], and 48 h, and every 24 h thereafter until 240 h.
All pooled 0–24, 5, 10, 12, and 24 h plasma samples were processed as follows. […] The samples were vortexed for 30 min and centrifuged at 4500g at 4 °C for 6 min. The supernatants were transferred into new polypropylene tubes and kept on ice. The resulting plasma protein pellets were extracted twice to ensure good recovery and the extracts were combined. The combined extracts were loaded onto Ostro sample preparation plates (Waters Corporation, Milford, MA, USA), dried, eluted with 0.2 mL of cold acetonitrile, and all eluates were collected and evaporated under nitrogen (TurboVap LV; Caliper Life Sciences, Hopkinton, MA, USA). The dry residues were reconstituted in 0.1 mL of methanol, and a 0.005-mL aliquot was removed for determination of radioactivity. The remainder of the supernatants were transferred to high-performance liquid chromatography (HPLC) vials and stored at −80 °C until analysis.
Pooled post-24-h plasma samples were extracted using a slightly modified procedure. […] Appropriate volumes of formic acid were added to achieve a final concentration of 1%. Then, the samples were warmed to 37 °C and loaded to preconditioned Oasis HLB cartridges (Waters Corporation, Milford, MA, USA). These columns were then washed with water, dried under vacuum, and eluted with methanol. The eluates were collected and evaporated under nitrogen. The dry residues were reconstituted in 0.1 mL of methanol, and a 0.005-mL aliquot was removed for determination of radioactivity. The remainder of the supernatants were transferred to HPLC vials and stored at −80 °C until analysis.
(§1) A Finnigan Surveyor HPLC system (Thermo Fisher Scientific Inc., San Jose, CA, USA), consisting of an LC pump plus an autosampler and a UV–Vis plus detector, was used mostly for profiling (except the post-24-h plasma samples, which were analyzed using a Dionex HPLC system). A Phenomenex® Gemini® C18, 5-μm, 3.0 × 100-mm column (Phenomenex Inc., Torrance, CA, USA) was used along with a C-12 guard column (4 × 2 mm). LC conditions were as follows: solvent A was 10 mM ammonium bicarbonate in water (pH 10.0) and solvent B was 100% methanol and the flow rate was 0.8 mL/min. The following gradient was employed (B%): 0–5 min (20%), 32 min (42%), 33 min (60%), 55 min (70%), 56–60 min (95%), and 62–70 min (20%).
(§2) Reconstituted solvent extracts (0.050–0.10 mL) of plasma, urine, or feces were injected onto the HPLC column. The post-column eluate was split after UV detection into two streams (0.64 and 0.16 mL/min). The 0.64-mL stream was diverted to a fraction collector (Gilson FX 204; Gilson Medical Electronics, Middleton, WI, USA) to be collected in 96-well plates at 0.16 min/well (ScintiPlates; PerkinElmer Life Sciences, Shelton, CT, USA), and the 0.16-mL stream was directed to the mass spectrometer. The solvent in the 96-well plates was removed at 40 °C using a Genevac evaporator (Genevac, Inc., Stone Ridge, NY, USA).
(§3) The radioactivity counts per minute (CPM) in each well was determined using a MicroBeta scintillation counter (PerkinElmer Life and Analytical Sciences). The resulting CPM vs. time data were processed using Excel (Microsoft Corporation, Seattle, WA, USA). The CPM in each well was background-subtracted (using the average CPM values of the blank region of the HPLC run). Radiochromatographic profiles were obtained by plotting the resulting net CPM values against time after injection. Radioactive peaks in the chromatographic profiles were identified, and the radioactivity in each peak was summed and reported as a percentage of TRA in the HPLC run.

[2] = Metabolite profiling of urine (HPLC-radiochromatography); format: in vivo, human; details: 0–72 h pool
Description: Predose and 0–72-h urine samples (grand pool of all six subjects) were prepared. Urine samples (5 mL) were centrifuged, the supernatant was transferred to a 15-mL polypropylene tube and placed on ice; the residues were extracted with 1 mL of methanol and the methanol extracts were added to the supernatants. The combined extracts were evaporated under nitrogen and reconstituted in 0.2 mL of methanol. A 0.010-mL aliquot of the reconstituted solution was removed for determination of radioactivity, and the remainder was transferred to HPLC vials and stored at −80 °C.
as §1, §2, §3

[3] = Metabolite characterization by LC/MS/MS in human plasma, urine, and feces; details: human plasma, urine, feces; LC/MS/MS
Description: The remaining eluate stream of 0.16 mL/min from the HPLC runs was diverted to the inlet of the mass spectrometer. The samples were analyzed using a heated electrospray ionization probe. Full-scan positive ion MS data were collected using Finnigan Exactive (MS^1) or Q-Exactive (MS^1 and MS^2) mass spectrometers (Thermo Fisher Scientific Inc.) Exact conditions are described in the Online Resource 3.
Finnigan Exactive or Q-Exactive mass spectrometers (Thermo Fisher Scientific Inc., San Jose, CA) were used to collect full scan MS^1 and MS^2 data.

[4] = co-administration of ketoconazole (potent CYP3A4 inhibitor) ref 11; cited from earlier work

% Distribution in plasma ([1]; 0–24 h pooled plasma): 25.5%
% Distribution in plasma ([1]; 5 h pooled plasma): 42.4%
% Distribution in plasma ([1]; 10 h pooled plasma): 36.3%
% Distribution in plasma ([1]; 12 h pooled plasma): 51.5%
% Distribution in plasma ([1]; 36 h pooled plasma): 4.2%
% Distribution in plasma ([1]; 48 h pooled plasma): 9.4%
% Distribution in plasma ([1]; 72 h pooled plasma): 12.8%
% Distribution in plasma ([1]; 96 h pooled plasma): 13.2%
% of total radioactive dose [2]: <0.05%
% Distribution in matrix ([2]; % of urinary TRA): Trace levels
Matrix (in which the metabolite was found) [3]: P, U, F
SMILES: Cc1ccc(C(=O)Nc2ccc(CN3CCN(C)CC3)c(C(F)(F)F)c2)cc1C#Cc1cnc2cccnn12.Cl [Ponatinib, 3-(imidazo[1,2-b]pyridazin-3-ylethynyl)-4-methyl-N-(4-((4-methylpiperazin-1-yl)methyl)-3-(trifluoromethyl)phenyl)benzamide hydrochloride]
increase of AUC0–∞ on co-administration of ketoconazole [4]: 47%
increase of C max on co-administration of ketoconazole [4]: 78%
